Laboratory results taken from patent US10525143B2, “Conjugate of polyethylene glycol and anesthetic, and preparation method thereof” (JenKem Technology Co., Ltd. (Tianjin), priority 2015, dated 2020).
Structures can show the parent of a compound that is named as a salt.

What was measured:
SD rats = assay: Von Frey test in rat incisional pain model (Brennan method); format: in vivo; conditions: for Von Frey Hairs (g) 1 h: paw withdrawal threshold 1 h after surgery; for Von Frey Hairs (g) 1 h / Von Frey Hairs (g) 3 h / Von Frey Hairs (g) 6 h / Von Frey Hairs (g) 12 h / Von Frey Hairs (g) 24 h: injected in the incision, 10 mg/kg (counted by lidocaine) or 4 mg/kg (counted by bupivacaine); for Von Frey Hairs (g) 1 h / Von Frey Hairs (g) 3 h / Von Frey Hairs (g) 6 h / Von Frey Hairs (g) 12 h / Von Frey Hairs (g) 24 h / Von Frey Hairs (g) Basline: x±s; for Von Frey Hairs (g) 3 h: paw withdrawal threshold 3 h after surgery; for Von Frey Hairs (g) 6 h: paw withdrawal threshold 6 h after surgery; for Von Frey Hairs (g) 12 h: paw withdrawal threshold 12 h after surgery; for Von Frey Hairs (g) 24 h: paw withdrawal threshold 24 h after surgery; for Von Frey Hairs (g) Basline: paw withdrawal threshold before surgery and administration, 6 rats per group
[1] = single dose injected; postoperative pain; background statement; cited from earlier work
[2] = background statement; cited from earlier work

| SMILES | Von Frey Hairs (g) 1 h (SD rats) [g] | Von Frey Hairs (g) 3 h (SD rats) [g] | Von Frey Hairs (g) 6 h (SD rats) [g] | Von Frey Hairs (g) 12 h (SD rats) [g] | Von Frey Hairs (g) 24 h (SD rats) [g] | Von Frey Hairs (g) Basline (SD rats) [g] | duration of the drug (local anesthesia) [2] [h] | also measured |
| --- | --- | --- | --- | --- | --- | --- | --- | --- |
| CCCCN1CCCCC1C(=O)Nc1c(C)cccc1C (stereo not drawn) [Bupivacaine hydrochloride] | 4.3 ± 0.7 | 6.6 ± 0.4 | 5.3 ± 0.5 | 3.4 ± 0.9 | 1.7 ± 0.4 | 7.3 ± 0.7 | – | duration of analgesia (in words) (SD rats; discussion of Table 1): relatively long duration; onset of analgesic effect (in words) (SD rats; discussion of Table 1): takes effect more slowly than lidocaine hydrochloride |
| CCCCN1CCCCC1C(=O)Nc1c(C)cccc1C (stereo not drawn) [Bupivacaine] | – | – | – | – | – | – | – | duration of analgesic effect [1]: less than 7 h |
| CCCCN1CCCC[C@H]1C(=O)Nc1c(C)cccc1C [L-bupivacaine] | – | – | – | – | – | – | 5 to 7 | – |
| CCN(CC)CC(=O)Nc1c(C)cccc1C [Lidocaine hydrochloride] | 6.6 ± 0.5 | 6.1 ± 0.4 | 4.0 ± 0.6 | 1.5 ± 0.4 | 1.4 ± 0.2 | 7.5 ± 0.8 | – | – |
| CCN(CC)CC(=O)Nc1c(C)cccc1C [lidocaine] | – | – | – | – | – | – | 1 to 2 | – |
| CCCN1CCCC[C@H]1C(=O)Nc1c(C)cccc1C [ropivacaine] | – | – | – | – | – | – | 4.4 | – |
